This note sets out measurements from US20250161289A1, “KAT6 Targeting Compounds” (Prelude Therapeutics Incorporated, priority 2023, published 2025).

The assay deals with T1, KAT6A (Homo sapiens, UniProt Q92794).
T1 construct: expressed in transfected cells; host or cells: HeLa
The experiment in a line: HiBit KAT6A Degradation Assessment. Particulars: HeLa cells with a HiBit tagged KAT6A; for Dmax: HeLa. It is filed as cell-based. As for the experimental part:
The degradation activity of compounds was evaluated by measuring levels of KAT6A protein using the HiBiT system. These studies were conducted in HeLa cells with a HiBit tagged KAT6A. Cells were maintained in a 37° C. incubator at 5% CO2 in EMEM or DMEM (ATCC, 30-2003) supplemented with 10% v/v FBS (Gibco, 26140-079) and 1% penicillin streptomycin. Cells were seeded in 384-well plates at a density of 2,000 cells/well. Compounds dissolved in DMSO were added in 9-point serial dilution. After 18-24 h of treatment, KAT6A levels were measured using the Nano-Glo® HiBiT Lytic Detection System (Promega catalog number N3030) per manufacturer's instructions. Luminescence signal was measured with a multimode plate reader (Envision 2105, Perkin Elmer or PHERAStar FSX, BMG Labtech). Luminescence values were normalized to background and DMSO controls to quantify KAT6A for each condition. Results were analyzed, and DC50 and Dmax values obtained using a four-parameter logistic curve fit. The results are summarized in Table 3 (18 h of treatment) and Table 4 (24 h of treatment).
A general note: HiBiT is a short tag that completes a luciferase, so light tracks the accessible tagged protein.

Each structure is given as a SMILES string.

T1 sequence (Q92794 whole entry): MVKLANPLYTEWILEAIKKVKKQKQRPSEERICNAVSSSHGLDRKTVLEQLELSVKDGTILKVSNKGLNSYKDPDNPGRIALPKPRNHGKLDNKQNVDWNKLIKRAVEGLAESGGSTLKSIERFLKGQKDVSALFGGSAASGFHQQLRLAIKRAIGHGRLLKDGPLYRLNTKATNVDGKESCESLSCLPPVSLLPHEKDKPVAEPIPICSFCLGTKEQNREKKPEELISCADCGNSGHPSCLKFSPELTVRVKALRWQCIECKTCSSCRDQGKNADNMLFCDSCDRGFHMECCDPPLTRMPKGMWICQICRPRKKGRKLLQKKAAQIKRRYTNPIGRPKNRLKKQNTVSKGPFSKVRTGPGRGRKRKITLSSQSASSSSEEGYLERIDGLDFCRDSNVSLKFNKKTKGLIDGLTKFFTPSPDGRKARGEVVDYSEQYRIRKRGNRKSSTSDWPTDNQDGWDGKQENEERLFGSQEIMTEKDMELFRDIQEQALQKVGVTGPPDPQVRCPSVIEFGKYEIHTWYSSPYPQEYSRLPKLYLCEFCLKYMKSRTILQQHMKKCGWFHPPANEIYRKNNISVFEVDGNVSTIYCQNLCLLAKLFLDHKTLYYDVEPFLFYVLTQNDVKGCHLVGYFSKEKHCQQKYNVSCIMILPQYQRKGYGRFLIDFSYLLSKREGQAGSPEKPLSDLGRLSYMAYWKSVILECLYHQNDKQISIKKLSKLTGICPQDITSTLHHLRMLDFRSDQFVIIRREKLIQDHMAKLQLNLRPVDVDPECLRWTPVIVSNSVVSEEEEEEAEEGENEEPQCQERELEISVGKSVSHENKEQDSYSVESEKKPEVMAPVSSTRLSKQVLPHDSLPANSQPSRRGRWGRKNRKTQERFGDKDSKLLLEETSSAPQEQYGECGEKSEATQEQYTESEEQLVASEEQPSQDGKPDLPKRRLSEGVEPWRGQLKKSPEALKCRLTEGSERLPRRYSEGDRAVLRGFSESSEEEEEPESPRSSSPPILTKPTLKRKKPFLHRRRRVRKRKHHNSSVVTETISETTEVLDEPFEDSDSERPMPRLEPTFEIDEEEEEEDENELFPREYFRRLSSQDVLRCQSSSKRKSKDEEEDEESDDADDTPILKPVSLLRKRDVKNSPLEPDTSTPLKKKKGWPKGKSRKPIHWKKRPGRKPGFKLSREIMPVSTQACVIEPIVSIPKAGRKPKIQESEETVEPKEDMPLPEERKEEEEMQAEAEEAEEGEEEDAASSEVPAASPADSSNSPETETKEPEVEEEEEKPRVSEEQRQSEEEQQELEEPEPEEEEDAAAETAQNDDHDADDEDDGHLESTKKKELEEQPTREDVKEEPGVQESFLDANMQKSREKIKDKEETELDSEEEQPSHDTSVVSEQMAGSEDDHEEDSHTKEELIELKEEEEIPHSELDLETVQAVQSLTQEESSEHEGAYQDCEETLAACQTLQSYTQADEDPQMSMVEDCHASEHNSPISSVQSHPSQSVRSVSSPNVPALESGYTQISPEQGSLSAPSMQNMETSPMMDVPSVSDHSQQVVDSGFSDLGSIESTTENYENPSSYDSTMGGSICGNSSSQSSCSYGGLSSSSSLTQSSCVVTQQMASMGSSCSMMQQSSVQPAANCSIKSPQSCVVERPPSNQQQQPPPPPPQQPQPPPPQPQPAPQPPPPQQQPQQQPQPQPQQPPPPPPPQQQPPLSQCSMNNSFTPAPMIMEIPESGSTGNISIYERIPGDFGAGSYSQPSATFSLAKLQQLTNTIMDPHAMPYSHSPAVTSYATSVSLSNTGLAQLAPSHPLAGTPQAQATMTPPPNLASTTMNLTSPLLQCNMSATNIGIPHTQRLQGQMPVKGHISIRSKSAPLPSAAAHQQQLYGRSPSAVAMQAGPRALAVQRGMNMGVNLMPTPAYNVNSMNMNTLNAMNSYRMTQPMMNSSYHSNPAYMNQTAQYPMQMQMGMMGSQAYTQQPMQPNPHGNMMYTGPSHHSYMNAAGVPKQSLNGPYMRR

On to `O=C1CC[C@H](N2Cc3cc(N4CC[C@@H](CN5CCC6(CC5)CN(c5cccc(S(=O)(=O)Nc7noc8cc(Cn9cccn9)c9c(c78)OCC9)c5)C6)C4)ccc3C2=O)C(=O)N1` [Example 1, N-(4-((1H-Pyrazol-1-yl)methyl)-2,3-dihydrobenzofuro[7,6-d]isoxazol-8-yl)-3-(7-(((S)-1-(2-((S)-2,6-dioxopiperidin-3-yl)-1-oxoisoindolin-5-yl)pyrrolidin-3-yl)methyl)-2,7-diazaspiro[3.5]nonan-2-yl)benzenesulfonamide], for which the DC50 (commonly the concentration at which degradation of the target reaches its halfway point) (18 h of treatment) was < 10 nM and the 50% degradation concentration (DC50) (24 h of treatment) was in the range of 10 to 100 nM. Moreover, the Dmax – broadly, the largest share of the target that was removed – was > 75% (18 h of treatment) and 50 to 75% (24 h of treatment).

For `O=C1CC[C@H](N2Cc3cc(N4CC[C@@H](CN5C[C@H]6CN(c7cccc(S(=O)(=O)Nc8noc9cc(Cn%10cccn%10)c%10c(c89)OCC%10)c7)C[C@@H]6C5)C4)ccc3C2=O)C(=O)N1` [Example 2, N-(4-((1H-Pyrazol-1-yl)methyl)-2,3-dihydrobenzofuro[7,6-d]isoxazol-8-yl)-3-((3aS,6aS)-5-(((S)-1-(2-((S)-2,6-dioxopiperidin-3-yl)-1-oxoisoindolin-5-yl)pyrrolidin-3-yl)methyl)hexahydropyrrolo[3,4-c]pyrrol-2(1H)-yl)benzenesulfonamide], where the note is “18 h of treatment”, the DC50 was in the range of 10 to 100 nM and the Dmax was > 75%.

Consider `O=C1CC[C@H](N2Cc3cc(N4CC[C@@H](CN5CCC6(CC5)CCN(c5cccc(S(=O)(=O)Nc7noc8cc(Cn9cccn9)c9c(c78)OCC9)c5)CC6)C4)ccc3C2=O)C(=O)N1` [Example 3, N-(4-((1H-Pyrazol-1-yl)methyl)-2,3-dihydrobenzofuro[7,6-d]isoxazol-8-yl)-3-(9-(((S)-1-(2-((S)-2,6-dioxopiperidin-3-yl)-1-oxoisoindolin-5-yl)pyrrolidin-3-yl)methyl)-3,9-diazaspiro[5.5]undecan-3-yl)benzenesulfonamide], for which, under “18 h of treatment”, the DC50 lay in the range of 10 to 100 nM and the Dmax was > 75%.

With `O=C1CC[C@H](N2Cc3cc(N4CC[C@@H](CN5CC6(CCN(c7cccc(S(=O)(=O)Nc8noc9cc(Cn%10cccn%10)c%10c(c89)OCC%10)c7)CC6)C5)C4)ccc3C2=O)C(=O)N1` [Example 4, N-(4-((1H-Pyrazol-1-yl)methyl)-2,3-dihydrobenzofuro[7,6-d]isoxazol-8-yl)-3-(2-(((S)-1-(2-((S)-2,6-dioxopiperidin-3-yl)-1-oxoisoindolin-5-yl)pyrrolidin-3-yl)methyl)-2,7-diazaspiro[3.5]nonan-7-yl)benzenesulfonamide], where the note is “18 h of treatment”, the DC50 is 10 to 100 nM and the Dmax was > 75%.

In turn, `O=C1CC[C@H](N2Cc3cc(N4CC[C@@H](CNC5CCN(c6cccc(S(=O)(=O)Nc7noc8cc(Cn9cccn9)c9c(c78)OCC9)c6)CC5)C4)ccc3C2=O)C(=O)N1` [Example 5, N-(4-((1H-Pyrazol-1-yl)methyl)-2,3-dihydrobenzofuro[7,6-d]isoxazol-8-yl)-3-(4-((((S)-1-(2-((S)-2,6-dioxopiperidin-3-yl)-1-oxoisoindolin-5-yl)pyrrolidin-3-yl)methyl)amino)piperidin-1-yl)benzenesulfonamide] yielded a Dmax (18 h of treatment) of 25 to 50%.

With `O=C1CCC(N2C(=O)c3ccc(N4CCC5(CC4)CC(N4CCN(c6cccc(S(=O)(=O)Nc7noc8cc(Cn9cccn9)c9c(c78)OCC9)c6)CC4)C5)cc3C2=O)C(=O)N1` (stereo not shown) [Example 6, N-(4-((1H-Pyrazol-1-yl)methyl)-2,3-dihydrobenzofuro[7,6-d]isoxazol-8-yl)-3-(4-(7-(2-(2,6-dioxopiperidin-3-yl)-1,3-dioxoisoindolin-5-yl)-7-azaspiro[3.5]nonan-2-yl)piperazin-1-yl)benzenesulfonamide], where the note is “18 h of treatment”, the 50% degradation concentration (DC50) was in the range of 100 to 1000 nM and the Dmax is 50 to 75%.

Take `O=C1CCC(N2C(=O)c3cccc(N4CCC(CN5CCN(c6cccc(S(=O)(=O)Nc7noc8cc(Cn9cccn9)c9c(c78)OCC9)c6)CC5)CC4)c3C2=O)C(=O)N1` (stereo not shown) [Example 7, N-(4-((1H-Pyrazol-1-yl)methyl)-2,3-dihydrobenzofuro[7,6-d]isoxazol-8-yl)-3-(4-((1-(2-(2,6-dioxopiperidin-3-yl)-1,3-dioxoisoindolin-4-yl)piperidin-4-yl)methyl)piperazin-1-yl)benzenesulfonamide]: for the setting “18 h of treatment”, the DC50 fell in the range of 100 to 1000 nM and the Dmax lay in the range of 50 to 75%.

Regarding `O=C1CCC(N2C(=O)c3ccc(N4CCC(CN5CCC(CN6CCN(c7cccc(S(=O)(=O)Nc8noc9cc(Cn%10cccn%10)c%10c(c89)OCC%10)c7)CC6)CC5)C4)cc3C2=O)C(=O)N1` (stereo not shown) [Example 8, N-(4-((1H-Pyrazol-1-yl)methyl)-2,3-dihydrobenzofuro[7,6-d]isoxazol-8-yl)-3-(4-((1-((1-(2-(2,6-dioxopiperidin-3-yl)-1,3-dioxoisoindolin-5-yl)pyrrolidin-3-yl)methyl)piperidin-4-yl)methyl)piperazin-1-yl)benzenesulfonamide], under “18 h of treatment”, the DC50 was < 10 nM and the Dmax was > 75%.

With `O=C1CCC(N2C(=O)c3ccc(N4CCC(CN5CCC(CN6CCN(c7cccc(S(=O)(=O)Nc8noc9cc(Cn%10cccn%10)c%10c(c89)OCC%10)c7)CC6)CC5)CC4)cc3C2=O)C(=O)N1` (stereo not shown) [Example 9, N-(4-((1H-Pyrazol-1-yl)methyl)-2,3-dihydrobenzofuro[7,6-d]isoxazol-8-yl)-3-(4-((1-((1-(2-(2,6-dioxopiperidin-3-yl)-1,3-dioxoisoindolin-5-yl)piperidin-4-yl)methyl)piperidin-4-yl)methyl)piperazin-1-yl)benzenesulfonamide], where the note is “18 h of treatment”, the DC50 is < 10 nM and the Dmax is 50 to 75%.

As for `COc1ccc(N2CC3(CCN(C[C@@H]4CCN(c5ccc6c(c5)CN([C@H]5CCC(=O)NC5=O)C6=O)C4)CC3)C2)c(OC)c1S(=O)(=O)Nc1noc2cc(Cn3cccn3)c3c(c12)OCC3` [Example 10, N-(4-((1H-Pyrazol-1-yl)methyl)-2,3-dihydrobenzofuro[7,6-d]isoxazol-8-yl)-3-(7-(((S)-1-(2-((S)-2,6-dioxopiperidin-3-yl)-1-oxoisoindolin-5-yl)pyrrolidin-3-yl)methyl)-2,7-diazaspiro[3.5]nonan-2-yl)-2,6-dimethoxybenzenesulfonamide], under “24 h of treatment”, the DC50 is < 10 nM and the Dmax was > 75%.

As to `COc1ccc(N2CC3(CCN(CC4CCN(c5ccc6c(c5)C(=O)N(C5CCC(=O)NC5=O)C6=O)CC4)CC3)C2)c(OC)c1S(=O)(=O)Nc1noc2cc(Cn3cccn3)c3c(c12)OCC3` (stereo not shown) [Example 11, N-(4-((1H-Pyrazol-1-yl)methyl)-2,3-dihydrobenzofuro[7,6-d]isoxazol-8-yl)-3-(7-((1-(2-(2,6-dioxopiperidin-3-yl)-1,3-dioxoisoindolin-5-yl)piperidin-4-yl)methyl)-2,7-diazaspiro[3.5]nonan-2-yl)-2,6-dimethoxybenzenesulfonamide], where the note is “24 h of treatment”, the DC50 was < 10 nM and the Dmax lay in the range of 50 to 75%.

For `COc1c(N2CC3(CCN(CC4CCN(c5ccc6c(c5)C(=O)N(C5CCC(=O)NC5=O)C6=O)CC4)CC3)C2)cccc1S(=O)(=O)Nc1noc2cc(Cn3cccn3)c3c(c12)OCC3` (stereo not shown) [Example 12, N-(4-((1H-Pyrazol-1-yl)methyl)-2,3-dihydrobenzofuro[7,6-d]isoxazol-8-yl)-3-(7-((1-(2-(2,6-dioxopiperidin-3-yl)-1,3-dioxoisoindolin-5-yl)piperidin-4-yl)methyl)-2,7-diazaspiro[3.5]nonan-2-yl)-2-methoxybenzenesulfonamide], where the note is “24 h of treatment”, the half-maximal degradation concentration (DC50) is 10 to 100 nM and the Dmax was > 75%.

For `COc1c(N2CC3(CCN(C[C@@H]4CCN(c5ccc6c(c5)CN([C@H]5CCC(=O)NC5=O)C6=O)C4)CC3)C2)cccc1S(=O)(=O)Nc1noc2cc(Cn3cccn3)c3c(c12)OCC3` [Example 13, N-(4-((1H-Pyrazol-1-yl)methyl)-2,3-dihydrobenzofuro[7,6-d]isoxazol-8-yl)-3-(7-(((S)-1-(2-((S)-2,6-dioxopiperidin-3-yl)-1-oxoisoindolin-5-yl)pyrrolidin-3-yl)methyl)-2,7-diazaspiro[3.5]nonan-2-yl)-2-methoxybenzenesulfonamide], under “24 h of treatment”, the DC50 is < 10 nM and the Dmax is > 75%.

For `COc1c(N2CC3(CCN(CC4CCN(c5cccc6c5C(=O)N(C5CCC(=O)NC5=O)C6=O)CC4)CC3)C2)cccc1S(=O)(=O)Nc1noc2cc(Cn3cccn3)c3c(c12)OCC3` (stereo not shown) [Example 14, N-(4-((1H-Pyrazol-1-yl)methyl)-2,3-dihydrobenzofuro[7,6-d]isoxazol-8-yl)-3-(7-((1-(2-(2,6-dioxopiperidin-3-yl)-1,3-dioxoisoindolin-4-yl)piperidin-4-yl)methyl)-2,7-diazaspiro[3.5]nonan-2-yl)-2-methoxybenzenesulfonamide], for the setting “24 h of treatment”, the DC50 was < 10 nM and the Dmax was > 75%.

Under “24 h of treatment”, `O=C1CC[C@H](N2Cc3cc(N4CC[C@@H](CN5CCC6(CC5)CN(c5ccc(S(=O)(=O)Nc7noc8cc(Cn9cccn9)c9c(c78)OCC9)cc5)C6)C4)ccc3C2=O)C(=O)N1` [Example 15, N-(4-((1H-Pyrazol-1-yl)methyl)-2,3-dihydrobenzofuro[7,6-d]isoxazol-8-yl)-4-(7-(((S)-1-(2-((S)-2,6-dioxopiperidin-3-yl)-1-oxoisoindolin-5-yl)pyrrolidin-3-yl)methyl)-2,7-diazaspiro[3.5]nonan-2-yl)benzenesulfonamide] registered a DC50 of 10 to 100 nM and a Dmax of 50 to 75%.
